For orientation: Kd means the free concentration of one partner at which half of the binding sites on the other are occupied at equilibrium, for simple one-to-one binding. Higher therefore signals a looser complex.

Molecules are shown by their SMILES.

One assay can be described thus: In vitro ability to displace the specific binding of [3H]diltiazem to diltiazem receptor in guinea pig skeletal muscle.
In turn, `CCc1ccc([C@@H]2Cc3c(cccc3C(F)(F)F)N(CCN(C)C)C(=O)[C@@H]2C)cc1` came in with a dissociation constant (Kd) of 1 µM. For `COc1ccc([C@@H]2Cc3c(OC)cccc3N(CCN(C)C)C(=O)[C@@H]2C)cc1`, binding was put at a Kd of 0.4 µM. On to `COc1ccc([C@@H]2Cc3c(cccc3C(F)(F)F)N(CCN(C)C)C(=O)[C@@H]2C)cc1OC`, for which the affinity, expressed as Kd, was 2 µM. On to `C=CCN(C)CCN1C(=O)[C@H](OC(C)=O)[C@H](c2ccc(OC)cc2)Cc2c1cccc2C(F)(F)F`, for which binding was put at a Kd of 0.42 µM. Turning to `COc1ccc([C@@H]2Cc3c(OC)cccc3N(CCN(C)C)C(=O)[C@@H]2OC(C)=O)cc1`, binding was put at a Kd of 1.8 µM. `COc1ccc([C@@H]2Cc3c(cccc3C(F)(F)F)N(CCN(C)C(C)=O)C(=O)[C@@H]2O)cc1`: the Kd turned out to be 13 µM.

As for `COc1ccc([C@@H]2Cc3c(cccc3C(F)(F)F)N(CC[N+](C)(C)C)C(=O)[C@@H]2C)cc1`, the equilibrium dissociation constant (Kd) came to 0.84 µM. Regarding `CSc1ccc([C@@H]2Cc3c(cccc3C(F)(F)F)N(CCN(C)C)C(=O)[C@@H]2C)cc1`, the dissociation constant Kd was determined as 1.1 µM. `CCCN(C)CCN1C(=O)[C@H](OC(C)=O)[C@H](c2ccc(OC)cc2)Cc2c1cccc2C(F)(F)F`: the Kd stood at 0.52 µM. Consider `CNc1ccc([C@@H]2Cc3c(cccc3C(F)(F)F)N(CCN(C)C)C(=O)[C@@H]2C)cc1`, for which binding was characterised by a dissociation constant (Kd) of 0.57 µM. In turn, `COc1ccc([C@@H]2Cc3c(ccc(Br)c3OC)N(CCN(C)C)C(=O)[C@@H]2C)cc1` showed a Kd of 0.12 µM. As for `COc1ccc([C@@H]2Cc3c(ccc(Br)c3OC)N(CCN(C)C)C(=O)[C@@H]2OC(C)=O)cc1`, the dissociation constant (Kd) was determined as 0.12 µM. For `COc1ccc([C@@H]2Cc3c(cccc3C(F)(F)F)N(CC(C)N(C)C)C(=O)[C@@H]2C)cc1` (stereo partly specified), the Kd amounted to 0.32 µM. For `COc1ccc([C@@H]2Cc3c(cccc3C(F)(F)F)N(CCN(C)C)C(=O)[C@@H]2O)cc1`, the affinity, expressed as Kd, was 0.66 µM.

With `COc1ccc([C@@H]2Cc3c(C(=O)OCc4ccccc4)cccc3N(CCN(C)C)C(=O)[C@@H]2OC(C)=O)cc1`, the Kd was 1.4 µM. `CNCCN1C(=O)[C@H](OC(C)=O)[C@H](c2ccc(OC)cc2)Cc2c1cccc2C(F)(F)F` showed a Kd of 0.16 µM. As for `CCC[C@H]1C(=O)N(CCN(C)C)c2ccccc2C[C@H]1c1ccc(OC)cc1`, the Kd is 0.25 µM. In turn, `C[C@H]1C(=O)N(CCN(C)C)c2cccc(C(F)(F)F)c2C[C@H]1c1ccc(O)cc1` came in with a Kd of 1.6 µM. The same measure, in the same setting: to `COc1ccc([C@@H]2Cc3c(cccc3C(F)(F)F)N(CCN(C)CCCCc3ccccc3)C(=O)[C@@H]2OC(C)=O)cc1` belongs 0.22 µM; to `C#CCN(C)CCN1C(=O)[C@H](OC(C)=O)[C@H](c2ccc(OC)cc2)Cc2c1cccc2C(F)(F)F`, 1.8 µM. As for `CC[C@H]1C(=O)N(CCN(C)C)c2cccc(C(F)(F)F)c2C[C@H]1c1ccc(OC)cc1`, binding was characterised by a dissociation constant (Kd) of 0.6 µM.

In the case of `CNCCN1C(=O)[C@H](OC(C)=O)[C@H](c2ccc(OCCOC)cc2)Cc2c1cccc2C(F)(F)F`, binding was put at a Kd of 5.8 µM. The same measure, in the same setting: the result for `CNC(=O)CN1C(=O)[C@H](OC(C)=O)[C@H](c2ccc(OC)cc2)Cc2c1cccc2C(F)(F)F` reads 15 µM; that for `COc1ccc([C@@H]2Cc3c(cccc3C(F)(F)F)N(CCN(C)C(C)C)C(=O)[C@@H]2C)cc1`, 0.13 µM.

`COc1ccc([C@@H]2Cc3ccccc3N(CCN(C)C)C(=O)[C@@H]2OC(C)=O)cc1` came in with a Kd of 5.1 µM.

Test in the next assay: as above
This is another data set of the same source.
`COc1ccc([C@@H]2Cc3c(cccc3C(F)(F)F)N(C(C)CN(C)C)C(=O)[C@@H]2C)cc1` (stereo partly specified) gave a Kd of 0.54 µM.

The record behind these values is BindingDB's records for doi:10.1021/jm00082a020 (Bristol-Myers Squibb Pharmaceutical Research Institute, 1992).
